Test [1] deals with T1, human B1R receptor (hB1R) (Homo sapiens, UniProt P46663).
T1 construct: host or cells: CHO K1 cells
T1 sequence (P46663 1-353): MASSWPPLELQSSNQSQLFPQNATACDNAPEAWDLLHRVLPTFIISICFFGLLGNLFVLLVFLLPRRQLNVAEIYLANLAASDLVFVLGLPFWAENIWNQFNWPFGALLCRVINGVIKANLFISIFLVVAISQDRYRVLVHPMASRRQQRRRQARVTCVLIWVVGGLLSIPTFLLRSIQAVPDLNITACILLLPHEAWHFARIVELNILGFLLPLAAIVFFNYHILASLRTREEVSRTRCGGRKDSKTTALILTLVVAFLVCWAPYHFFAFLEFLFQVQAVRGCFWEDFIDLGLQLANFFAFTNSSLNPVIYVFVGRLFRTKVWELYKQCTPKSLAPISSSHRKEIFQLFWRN
Nature of the test: FLIPR Ca2+ assay on hB1R-transfected CHO K1 cells, antagonistic action. The test is classed as cell-based.

Test [2] concerns the target T2, B1R receptor of the rat (rB1R) (Rattus norvegicus, UniProt P97583).
T2 construct: host or cells: CHO K1 cells
T2 sequence (P97583 1-337): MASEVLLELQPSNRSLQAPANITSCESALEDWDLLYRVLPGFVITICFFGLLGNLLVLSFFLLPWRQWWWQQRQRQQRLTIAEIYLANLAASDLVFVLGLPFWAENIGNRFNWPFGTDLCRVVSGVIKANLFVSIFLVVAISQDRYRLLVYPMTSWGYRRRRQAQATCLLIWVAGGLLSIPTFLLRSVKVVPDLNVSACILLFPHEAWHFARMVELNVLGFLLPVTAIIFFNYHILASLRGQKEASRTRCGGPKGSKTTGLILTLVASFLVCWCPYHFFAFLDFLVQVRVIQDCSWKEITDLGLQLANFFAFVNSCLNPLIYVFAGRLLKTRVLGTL
Nature of the test: FLIPR Ca2+ assay on rB1R-transfected CHO K1 cells, antagonistic action. The test is classed as cell-based.

[3] abbreviates: CHO-K1, 10 μM test substance, agonist Lys-Des-Arg9-bradykinin 0.5 nM, % of maximum achievable inhibition, read-out: hB1R [10 μM] % inhibition.
[4] abbreviates: CHO-K1, 10 μM test substance, agonist Des-Arg9-bradykinin 100 nM, % of maximum achievable inhibition, read-out: rB1R [10 μM] % inhibition.

Read-outs that look alike come from different tables or passages of the source.

On to `COc1cc(C)c(S(=O)(=O)N(C)CCOCC(=O)NC2CCC(Cc3ccc(F)cc3)(N(C)C)CC2)c(C)c1` (stereo not drawn) [Compound 9, N-(4-(dimethylamino)-4-(4-fluorobenzyl)cyclohexyl)-2-(2-(4-methoxy-N,2,6-trimethylphenylsulfonamido)ethoxy)acetamide], for which the inhibition (as a rule, the relative decrease from the control value, in per cent) at 10 µM is 104% in test [1] (setting [3]) and 95% in test [2] (setting [4]).

For the molecule `COc1cc(C)c(S(=O)(=O)N2CCCCC2COCC(=O)N(C)CCCC2CCC(c3cccc(F)c3)(N3CCCC3)CC2)c(C)c1` (stereo not drawn) [Compound 204, N-(3-(4-(3-fluorophenyl)-4-(pyrrolidin-1-yl)cyclohexyl)propyl)-2-((1-(4-methoxy-2,6-dimethylphenylsulfonyl)piperidin-2-yl)methoxy)-N-methylacetamide], the inhibition at 10 µM is 99% in test [1] (setting [3]) and 103% in test [2] (setting [4]).

For the molecule `COc1cc(C)c(S(=O)(=O)N2CCCCC2COCC(=O)N2CCC(Cc3ccccc3)(N3CCN(C)CC3)CC2)c(C)c1` (stereo not drawn) [Compound 57, 1-(4-benzyl-4-(4-methylpiperazin-1-yl)piperidin-1-yl)-2-((1-(4-methoxy-2,6-dimethylphenylsulfonyl)piperidin-2-yl)methoxy)ethanone], the inhibition at 10 µM in test [1] (setting [3]) and in test [2] (setting [4]) was 100% in each case.

Take `COc1cc(C)c(S(=O)(=O)N(C)CCOCC(=O)NC2CCC(Cc3ccccc3)(N3CCCCCC3)CC2)c(C)c1` (stereo not drawn) [Compound 20, N-(4-(azepan-1-yl)-4-benzylcyclohexyl)-2-(2-(4-methoxy-N,2,6-trimethylphenylsulfonamido)ethoxy)acetamide]: the inhibition at 10 µM came to 91% in test [1] (setting [3]) and 69% in test [2] (setting [4]).

With `O=C(COC1CCN(S(=O)(=O)c2c(Cl)cc(Cl)cc2Cl)C1)NC1CCC(c2ccccc2)(N2CCCC2)CC1` (stereo not drawn) [Compound 178, N-(4-phenyl-4-(pyrrolidin-1-yl)cyclohexyl)-2-(1-(2,4,6-trichlorophenylsulfonyl)pyrrolidin-3-yloxy)acetamide], the values for the inhibition at 10 µM in test [1] (setting [3]) and in test [2] (setting [4]) were 53% and 76%, respectively.

Take `CN(C)C1(Cc2ccccc2)CCN(C(=O)CC2CCCCN2S(=O)(=O)c2cccc(C(F)(F)F)c2)CC1` (stereo not drawn) [Compound 97, 1-(4-benzyl-4-(dimethylamino)piperidin-1-yl)-2-(1-(3-(trifluoromethyl)phenylsulfonyl)piperidin-2-yl)ethanone]: the inhibition at 10 µM in test [1] (setting [3]) came out at 102%; in test [2] (setting [4]) it was 91%.

Take `COc1cc(C)c(S(=O)(=O)N(C)CCOCC(=O)N2CCC(CCc3ccccc3)(N3CCN(C)CC3)CC2)c(C)c1` [Compound 87, 4-methoxy-N,2,6-trimethyl-N-(2-(2-(4-(4-methylpiperazin-1-yl)-4-phenethylpiperidin-1-yl)-2-oxoethoxy)ethyl)benzenesulfonamide]: the inhibition at 10 µM in test [1] (setting [3]) was determined as 99%; in test [2] (setting [4]), 98%.

For `CN(C)C1(Cc2ccccc2)CCN(C(=O)COCC2CCc3ccccc3N2S(=O)(=O)c2ccc(Cl)c(Cl)c2)CC1` (stereo not drawn) [Compound 36, 1-(4-benzyl-4-(dimethylamino)piperidin-1-yl)-2-((1-(3,4-dichlorophenylsulfonyl)-1,2,3,4-tetrahydroquinolin-2-yl)methoxy)ethanone], the inhibition at 10 µM in test [1] (setting [3]) and in test [2] (setting [4]) was 101% in each case.

Regarding `Cc1cc(S(=O)(=O)N2CCCCC2CCC(=O)N(C)CCC2CCC(c3ccccc3)(N(C)C)CC2)c(C)cc1Cl` (stereo not drawn) [Compound 107, 3-(1-(4-chloro-2,5-dimethylphenylsulfonyl)piperidin-2-yl)-N-(2-(4-(dimethylamino)-4-phenylcyclohexyl)ethyl)-N-methylpropanamide], the inhibition at 10 µM came to 105% in test [1] (setting [3]) and 79% in test [2] (setting [4]).

For `CN(CCOCC(=O)NC1CCC(c2ccccc2)(N2CCCC2)CC1)S(=O)(=O)c1ccc(Cl)cc1Cl` (stereo not drawn) [Compound 179, 2-(2-(2,4-dichloro-N-methylphenylsulfonamido)ethoxy)-N-(4-phenyl-4-(pyrrolidin-1-yl)cyclohexyl)acetamide], the inhibition at 10 µM is 41% in test [1] (setting [3]) and 75% in test [2] (setting [4]).

On to `CNC1(c2ccncc2)CCN(C(=O)COCCN(C)S(=O)(=O)c2c(C)cc(OC)cc2C)CC1` [Compound 209, 4-Methoxy-N,2,6-trimethyl-N-(2-(2-(4-(methylamino)-4-(pyridin-4-yl)piperidin-1-yl)-2-oxoethoxy)ethyl)benzenesulfonamide], for which the inhibition at 10 µM in test [1] (CHO-K1, read-out: hB1R [10 μM] % inhibition) is 100%; in test [2] (CHO-K1, read-out: rB1R [10 μM] % inhibition), 99%.

For the molecule `COc1cc(C)c(S(=O)(=O)N(C)CCOCC(=O)N2CCC(c3ccc(F)cc3)(N3CCN(C)CC3)CC2)c(C)c1` [Compound 42, N-(2-(2-(4-(4-fluorophenyl)-4-(4-methylpiperazin-1-yl)piperidin-1-yl)-2-oxoethoxy)ethyl)-4-methoxy-N,2,6-trimethylbenzenesulfonamide], the values for the inhibition at 10 µM in test [1] (setting [3]) and in test [2] (setting [4]) were 105% and 101%, respectively.

Regarding `COc1cc(C)c(S(=O)(=O)N(C)CCOCC(=O)N(C)CCCC2CCC(CCc3ccccc3)(N3CCCC3)CC2)c(C)c1` (stereo not drawn) [Compound 91, 2-(2-(4-methoxy-N,2,6-trimethylphenylsulfonamido)ethoxy)-N-methyl-N-(3-(4-phenethyl-4-(pyrrolidin-1-yl)cyclohexyl)propyl)acetamide], the figures for the inhibition at 10 µM in test [1] (setting [3]) and in test [2] (setting [4]) were 98% and 97%, respectively.

For the molecule `CN(CCC1CCC(c2ccccc2)(N(C)C)CC1)C(=O)CC(NS(=O)(=O)c1ccc2ccccc2c1)c1ccccc1` (stereo not drawn) [Compound 90, N-(2-(4-(dimethylamino)-4-phenylcyclohexyl)ethyl)-N-methyl-3-(naphthalene-2-sulfonamido)-3-phenylpropanamide], the inhibition at 10 µM in test [1] (setting [3]) and in test [2] (setting [4]) was 97% in each case.

With `COc1cc(C)c(S(=O)(=O)N2CCCCC2COCC(=O)N(C)CCC2CCC(CCc3ccccc3)(N3CCCC3)CC2)c(C)c1` (stereo not drawn) [Compound 46, 2-((1-(4-methoxy-2,6-dimethylphenylsulfonyl)piperidin-2-yl)methoxy)-N-methyl-N-(2-(4-phenethyl-4-(pyrrolidin-1-yl)cyclohexyl)ethyl)acetamide], the inhibition at 10 µM in test [1] (setting [3]) came out at 104%; in test [2] (setting [4]), 100%.

Regarding `COc1cc(C)c(S(=O)(=O)N2CCCCC2COCC(=O)N2CCC(CCc3ccccc3)(N3CCN(C)CC3)CC2)c(C)c1` (stereo not drawn) [Compound 77, 2-((1-(4-methoxy-2,6-dimethylphenylsulfonyl)piperidin-2-yl)methoxy)-1-(4-(4-methylpiperazin-1-yl)-4-phenethylpiperidin-1-yl)ethanone], the inhibition at 10 µM in test [1] (setting [3]) is 100%; in test [2] (setting [4]), 99%.

In the case of `CN1CCN(C2(CCc3ccccc3)CCN(C(=O)CC3CCCCN3S(=O)(=O)c3cccc(C(F)(F)F)c3)CC2)CC1` (stereo not drawn) [Compound 119, 1-(4-(4-methylpiperazin-1-yl)-4-phenethylpiperidin-1-yl)-2-(1-(3-(trifluoromethyl)phenylsulfonyl)piperidin-2-yl)ethanone], the inhibition at 10 µM in test [1] (setting [3]) turned out to be 90%; in test [2] (setting [4]), 69%.

Turning to `COc1cc(C)c(S(=O)(=O)N2CCC(OCC(=O)NC3CCC(c4ccccc4)(N4CCCC4)CC3)C2)c(C)c1` (stereo not drawn) [Compound 153, 2-(1-(4-methoxy-2,6-dimethylphenylsulfonyl)pyrrolidin-3-yloxy)-N-(4-phenyl-4-(pyrrolidin-1-yl)cyclohexyl)acetamide], the results for the inhibition at 10 µM in test [1] (setting [3]) and in test [2] (setting [4]) were 97% and 102%, respectively.

In the case of `COc1cc(C)c(S(=O)(=O)N2CCCCC2COCC(=O)N(C)CC2CCC(CCc3ccccc3)(N3CCCC3)CC2)c(C)c1` (stereo not drawn) [Compound 51, 2-((1-(4-methoxy-2,6-dimethylphenylsulfonyl)piperidin-2-yl)methoxy)-N-methyl-N-((4-phenethyl-4-(pyrrolidin-1-yl)cyclohexyl)methyl)acetamide], the inhibition at 10 µM in test [1] (setting [3]) was 102%; in test [2] (setting [4]), 100%.

As for `Cc1cc(S(=O)(=O)N2CCCCC2CCC(=O)N2CCC(c3ccccc3)(N3CCN(C)CC3)CC2)c(C)cc1Cl` (stereo not drawn) [Compound 110, 3-(1-(4-chloro-2,5-dimethylphenylsulfonyl)piperidin-2-yl)-1-(4-(4-methylpiperazin-1-yl)-4-phenylpiperidin-1-yl)propan-1-one], the inhibition at 10 µM in test [1] (setting [3]) was found to be 104%; in test [2] (setting [4]) it was 78%.

On to `Cc1cc(S(=O)(=O)N2CCCCC2CCC(=O)N(C)CCC2CCC(CCc3ccccc3)(N3CCCC3)CC2)c(C)cc1Cl` (stereo not drawn) [Compound 131, 3-(1-(4-chloro-2,5-dimethylphenylsulfonyl)piperidin-2-yl)-N-methyl-N-(2-(4-phenethyl-4-(pyrrolidin-1-yl)cyclohexyl)ethyl)propanamide], for which the figures for the inhibition at 10 µM in test [1] (setting [3]) and in test [2] (setting [4]) were 99% and 47%, respectively.
